Read-outs that look alike come from different tables or passages of the source.
Key:
[1] = biological target: T1, human recombinant A3AR (expressed in HEK-293 cells) (Homo sapiens, UniProt P0DMS8); assay: Adenosine receptors antagonism assay (Eurofins), [125I]-AB-MECA radioligand competition; assay type: binding
T1 construct: host or cells: HEK-293 cells
T1 sequence (P0DMS8 1-318): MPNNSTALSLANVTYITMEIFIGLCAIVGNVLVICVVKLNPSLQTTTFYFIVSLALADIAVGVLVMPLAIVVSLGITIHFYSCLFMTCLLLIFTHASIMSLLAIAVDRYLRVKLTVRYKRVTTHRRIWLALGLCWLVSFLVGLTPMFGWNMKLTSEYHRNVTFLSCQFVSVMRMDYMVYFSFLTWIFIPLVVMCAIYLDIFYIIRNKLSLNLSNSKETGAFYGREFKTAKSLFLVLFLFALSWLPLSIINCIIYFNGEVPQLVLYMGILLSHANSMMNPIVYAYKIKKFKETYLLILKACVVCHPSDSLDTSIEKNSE

[2] = Reversed-phase HPLC analysis of final compounds (stability under the analytical conditions); assay type: physicochemical
Experimental: Final compounds: Reversed-phase HPLC/MS analyses were carried out with a HPLC Ultimate 3000 (ThermoScientific) with an UV-DAD detector. Mass detection processing with direct infusion in mass detector (SQD2) from UPLC Acquity (Waters). Compounds (0.2 to 0.6 mg) were solubilized in a mixture of DMSO/H2O (1/1) and filtered on syringe filter 0.2 µm. • Acidic conditions: Thermo Scientific Syncronis C18 column, 150 x 4.6 mm, 5 µm. Flow rate: 1 mL/min. Gradient: (H2O + 0.1% HCOOH v/v)/(ACN + 0.1% HCOOH v/v) from 95/5 to 5/95 in 19.0 min. • Alkaline conditions: Thermo Scientific Syncronis C18 column, 150 × 4.6 mm, 5 µm or XTERRA RP18, 150×4.6mm, 3.5µm. Flow rate: 1 mL/min. Gradient: (HCOONH4 10mM + NH4OH 25% aq. to ajust pH = 10)/ACN from 95/5 to 5/95 in 19.0 min. Table 2: Spectroscopic and analytical characterization of compounds (1) to (220)

[3] = LogD (HPLC); assay type: physicochemical; settings: by HPLC; Table 2
[4] = biological target: T2, Human recombinant A3AR expressed in CHO cells (Homo sapiens, UniProt P0DMS8); assay: A3AR functional assay, cAMP levels measured by HTRF; assay type: cell-based
T2 construct: expressed in transfected cells; host or cells: CHO cells
T2 sequence (P0DMS8 1-318): T1 sequence (P0DMS8 1-318)
Experimental: Both assays were run for 20 min at 37°C, and cAMP levels measured by HTRF (homogeneous time resolved fluorescence) was used as an endpoint. The EC50 values (concentration producing a half-maximal response) and IC50 values (concentration causing a half-maximal inhibition of the control agonist response) were determined by non-linear regression analysis of the concentration-response curves generated with mean replicate values using Hill equation curve fitting.
An antagonistic activity in a radioligand assay can be due to competition to the same site by either an agonist or an antagonist (inhibitor). […] Assays were run for 20 min at 37°C and cAMP level measured by HTRF was used as an endpoint measure of the A3AR activity.

[5] = system: hair cells in isolated organs of Corti; assay: Otoprotective effects in ex vivo cultured organs of Corti, hair cells stained for myosine 7a; assay type: cell-based, mice; settings: 24 hrs, compound 0.1-1 µM added 2 hrs before
Experimental: Organs of Corti were obtained from mice at the P0-P3 stage. Organs of Corti were cultured ex vivo for 24 h before addition of cisplatin (20 µM), gentamycin (100 µM) or neomycin (3 mM) with or without compound (175) (1 or 0.1 µM) added 2 hrs before the ototoxins. After 24 hrs incubation, outer and inner ciliated hair cells were stained with an antibody directed against myosine 7a.

[6] = system: panel of 168 GPCRs; assay: PathHunter β-arrestin enzyme fragment complementation, agonist and antagonist mode; assay type: cell-based; settings: figure 2
Experimental: […] In brief, when the GPCR is activated and β-Arrestin is recruited to the receptor, the two fragments of β-galactosidase complementation occurs, restoring β- galactosidase activity which is measured using chemiluminescent PathHunter® Detection Reagents. The tested compound can be evaluated as a potential agonist or, in the presnece of a specifi agonits of each GPCR, as a potential antagonist. Results are provided in reference to the assay performed in the absence of tested compound.
The results of an evaluation of the potential agonist or antagonist activity of compound (175) on 168 GPCRs are depicted in figure 2.

[7] = [125I]-AB-MECA 0.15 nM, r.t., 120 min, IC50 from dose-response curves, read-out: Potency Class A3AR

| SMILES | IC50 [1, 7] [nM] | chromatographic logD [3] | other results |
| --- | --- | --- | --- |
| CSCCCNc1cc(NCc2ccccc2)c2nnc(C(C)C)n2n1 [compound 17, N8-benzyl-3-isopropyl-N6-(3-methylsulfanylpropyl)-[1,2,4]triazolo[4,3-b]pyridazine-6,8-diamine] | 10 to 100 | – | HPLC ([2]; Acidic conditions (H2O + 0.1% HCOOH / ACN + 0.1% HCOOH gradient)): Unstable ^a |
| CCC(CC)Nc1cc(NC(=O)Oc2ccccc2)c2nnc(C(C)C)n2n1 [compound 100, phenyl N-[6-(1-ethylpropylamino)-3-isopropyl-[1,2,4]triazolo[4,3-b]pyridazin-8-yl]carbamate] | – | – | IC50 [1]: 1 to 10 nM; HPLC ([2]; Alkaline conditions (HCOONH4 10mM + NH4OH, pH = 10 / ACN gradient)): Unstable ^b |
| CC(C)c1nnc2c(NCc3ccccc3)cc(NC3Cc4ccccc4C3)nn12 [compound 138, N8-benzyl-N6-indan-2-yl-3-isopropyl-[1,2,4]triazolo[4,3-b]pyridazine-6,8-diamine] | 10 to 100 | 4.08 | – |
| Cc1cnc(CNc2cc(NCc3ccccc3)c3nnc(C(C)C)n3n2)cn1 [compound 139, N8-benzyl-3-isopropyl-N6-[(5-methylpyrazin-2-yl)methyl]-[1,2,4]triazolo[4,3-b]pyridazine-6,8-diamine] | 100 to 1000 | 2.3 | – |
| CC(C)c1nnc2c(NCc3ccccc3)cc(NCc3cnn(C)c3)nn12 [compound 140, N8-benzyl-3-isopropyl-N6-[(1-methylpyrazol-4-yl)methyl]-[1,2,4]triazolo[4,3-b]pyridazine-6,8-diamine] | 10 to 100 | 2.3 | – |
| Cc1cc(C)cc(CNc2cc(NCc3ccccc3)c3nnc(C(C)C)n3n2)c1 [compound 141, N8-benzyl-N6-[(3,5-dimethylphenyl)methyl]-3-isopropyl-[1,2,4]triazolo[4,3-b]pyridazine-6,8-diamine] | 100 to 1000 | 4.2 | – |
| CSCCNc1cc(NCc2ccccc2)c2nnc(C(C)C)n2n1 [compound 143, N8-benzyl-3-isopropyl-N6-(2-methylsulfanylethyl)-[1,2,4]triazolo[4,3-b]pyridazine-6,8-diamine] | 10 to 100 | 3.07 | – |
| CC(C)c1nnc2c(NCc3ccccc3)cc(Nc3nccn3C)nn12 [compound 144, N8-benzyl-3-isopropyl-N6-(1-methylimidazol-2-yl)-[1,2,4]triazolo[4,3-b]pyridazine-6,8-diamine] | 100 to 1000 | 2.27 | – |
| Cc1cc(C)nc(CNc2cc(NCc3ccccc3)c3nnc(C(C)C)n3n2)n1 [compound 145, N8-benzyl-N6-[(4,6-dimethylpyrimidin-2-yl)methyl]-3-isopropyl-[1,2,4]triazolo[4,3-b]pyridazine-6,8-diamine] | 100 to 1000 | 2.52 | – |
| CCC(CC)Nc1cc(Nc2cccnn2)c2nnc(C3CC3)n2n1 [compound 175, 3-cyclopropyl-N6-(pentan-3-yl)-N8-(pyridazin-3-yl)-[1,2,4]triazolo[4,3-b]pyridazine-6,8-diamine] | < 1 | – | agonist effect ([4]; absence of ligand, concentrations tested 1 nM to 3.3 µM, data not shown): no agonist effect was detected; inhibition of A3AR ([4]; antagonist mode, stimulation 10 nM IB-MECA, 20 min at 37°C, figure 4): ≥ 65%; mode of action on A3AR ([4]; figure 4): partial antagonist inhibitor; selectivity towards ARs ([1]; A3AR compared to A1AR, A2AAR and A2BAR, figure 3): selective of A3AR; hair cell death induced by cisplatin ([5]; cisplatin 20 µM, figure 5A): prevented cell death; hair cell death induced by gentamycin ([5]; gentamycin 100 µM, figure 5B): prevented cell death; hair cell death induced by neomycin ([5]; neomycin 3 mM, figure 5C): prevented cell death; effect on all other GPCRs ([6]; agonist and antagonist mode, 0.1 µM compound): not or marginally impacted; inhibition of A3AR among 168 GPCRs ([6]; antagonist mode, GPCR exposed to its specific ligand and 0.1 µM compound): fully inhibited |
